The text below walks through data of US20250283049A1, “AGENT FOR CULTURING ORGANOID IN ABSENCE OF EXTRACELLULAR MATRIX” (KEIO UNIVERSITY, priority 2022, published 2025).

What all share (type): cell-based
Assay [1] has as its system human small intestine-derived organoid. Put plainly: Culture of organoids in absence of Matrigel with LATS kinase inhibitor; cell number by ATP (CellTiter-Glo 3D). How it is done:
(§1) In this experimental example, a human small intestine-derived organoid and human large intestine-derived organoid established in the presence of Matrigel (registered trademark) were cultured in the absence of Matrigel (registered trademark) and in the presence of a LATS kinase inhibitor (final concentration: 10 μM), and their dynamics were observed. The procedure was the same as in Experimental Example 1, except that each organoid was cultured in the absence of Matrigel (registered trademark).
The upper left panel of FIG. 3 is a photograph of a control (Ctrl) human small intestine-derived organoid cultured in the absence of Lats-IN, and the upper center panel of FIG. 3 is a photograph of a human small intestine-derived organoid cultured in the presence of Lats-IN. The scale bar is 100 μm. […] The vertical axis of the graph represents luminescence intensity (relative value) indicating the amount of ATP present. […]
(§2) FIG. 8 presents graphs showing the results of measuring the proliferation of the human small intestine-derived and human large intestine-derived organoids in the absence of Lats-IN (Ctrl), in the presence of Lats-IN (Lats-IN), in the presence of Lats-IN and MYF01-37 (Lats-IN+MYF), and in the presence of MYF01-37 (MYF). The cell proliferation was measured by measuring ATP using a commercially available kit (product name “CellTiter-Glo 3D,” Promega Corporation). The vertical axis of the graph represents luminescence intensity (relative value) indicating the amount of ATP present. […]
(§3) FIG. 26 presents graphs showing the results of measuring cell number in each organoid after 6 days of culture by measuring ATP using a commercially available kit (product name “CellTiter-Glo 3D,” Promega Corporation). The vertical axis of the graph represents luminescence intensity (relative value) indicating the amount of ATP present.
For orientation: ATP-based viability assays read luminescence as a measure of living cells.

The subject of assay [2] is human large intestine-derived organoid. The description is as above. How it is done: as §1
The lower left panel of FIG. 3 is a photograph of a control (Ctrl) human large intestine-derived organoid cultured in the absence of Lats-IN, and the lower center panel of FIG. 3 is a photograph of a human large intestine-derived organoid cultured in the presence of Lats-IN. The scale bar is 100 μm. The lower right panel of FIG. 3 is a graph showing the results of measuring cell number in the human large intestine-derived organoids cultured in the presence of the control (Ctrl) and Lats-IN. The vertical axis of the graph represents luminescence intensity (relative value) indicating the amount of ATP present. […]
as §2, §3

Assay [3] relates to human small intestine-derived organoids dissociated into single cells. Put plainly: Organoid formation from single cells. From the text:
Therefore, to examine whether signals from cell-to-cell interactions are involved in cell proliferation mediated by transcriptional regulation of YAP-TEAD by LATS inhibition, human small intestine-derived organoids were dissociated into single cells and then observed organoid formation from the single cells.
FIG. 9 presents representative photographs showing the results of organoid formation from single cells in the presence or absence of Matrigel (registered trademark) and in the absence or presence of Lats-IN (final concentration: 10 μM). In FIG. 9, the arrowheads indicate cells or organoids. In addition, D1, D4, and D7 indicate the first, fourth, and seventh days, respectively, after the start of culture. […] In addition, the percentage (%) of cells that formed organoids among the seeded single cells is also shown.

The subject of another assay is AXIN2 gene. Briefly: AXIN2 gene expression by quantitative real-time PCR in human small intestine-derived organoids. The conditions noted are these: absence of Matrigel; Lats-IN 10 μM. How it is done:
Human small intestine-derived organoids and human large intestine-derived organoids were cultured in the absence or presence of Matrigel (registered trademark) and in the absence or presence of Lats-IN (final concentration: 10 μM), and the expression level of the AXIN2 gene, whose expression is regulated by Wnt, was examined by quantitative real-time PCR.
FIG. 16 presents graphs showing the results of quantitative real-time PCR.
(In general: Real-time PCR tracks product formation cycle by cycle.)

The test system of assay [4] is crypts collected from the human colon. Put plainly: Organoid establishment from human colon crypts dissociated into single cells; cell number by ATP. The settings on record: absence of Matrigel, presence of TRULI; compared with presence of Matrigel. How it is done:
Crypts were collected from the human colon and dissociated into single cells, then cultured in the presence of Matrigel (registered trademark) or in the absence of Matrigel (registered trademark) and in the presence of TRULI to establish organoids. In addition, the cell number in each organoid under the given conditions was measured by measuring ATP using a commercially available kit (product name “CellTiter-Glo 3D,” Promega Corporation).
The upper panel of FIG. 30 is a schematic view explaining an overview of this experimental example. The lower panel of FIG. 30 is a graph showing the results of measuring the proliferation of the organoids.

Where [5] appears, read: Experimental Example 5, Lats-IN 10 μM alone.
Where [6] appears, read: final concentration 10 μM, 7 days of culture, vs control.

As for `O=C(N=c1sccn1Cc1ccccc1)c1c[nH]c2ncccc12` [Lats-IN], the “cell proliferation (ATP luminescence)” value in assay [1] (setting [5]) and in assay [2] (setting [5]) was “activated” each time. Also, the “cell proliferation (cell number, ATP luminescence)” value in assay [1] (setting [6]) and in assay [2] (setting [6]) was “significantly activated” each time. In addition, in assay [3] (absence of Matrigel, presence of Lats-IN 10 μM, up to day 7), the “organoid formation from single cells” value was “proliferated from single cells and formed organoids”. Besides, the “percentage of cells that formed organoids” value in assay [3] (presence of Matrigel and Lats-IN compared with absence of Matrigel and presence of Lats-IN) was “higher”. Moreover, the “expression level of AXIN2” value with AXIN2 gene is “increased to a level equivalent to that in the presence of Matrigel”. For the same molecule, in assay [4], the “cell proliferation (ATP) during organoid establishment” value is on record as “comparable to that observed in the presence of Matrigel”.
